Biological target: T1, human TRPV4 (Homo sapiens, UniProt Q9HBA0)
T1 construct: host or cells: tetracycline-inducible Flp-In T-REx 293 cells
Test: Hypotonicity-induced Ca2+ influx (Fluo-4, FDSS)
Assay type: cell-based
In short: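 Flp-In T-REx 293 cells with tetracycline-induced human TRPV4, loaded with Fluo-4 for 60 min at 25 °C. Compound added 5 min before hypotonic mannitol/CaCl2 solution. Ca2+ signal recorded for 4.5 min on FDSS.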

[1] = Flp-In T-REx 293 cells expressing human TRPV4, examples listed under heading 'Human IC50<50 nM'
[2] = Flp-In T-REx 293 cells stably expressing human TRPV4, compounds listed by potency bin (<10 nM Tables 96-1/96-2, <3 nM Table 97)

T1 sequence (Q9HBA0 whole entry): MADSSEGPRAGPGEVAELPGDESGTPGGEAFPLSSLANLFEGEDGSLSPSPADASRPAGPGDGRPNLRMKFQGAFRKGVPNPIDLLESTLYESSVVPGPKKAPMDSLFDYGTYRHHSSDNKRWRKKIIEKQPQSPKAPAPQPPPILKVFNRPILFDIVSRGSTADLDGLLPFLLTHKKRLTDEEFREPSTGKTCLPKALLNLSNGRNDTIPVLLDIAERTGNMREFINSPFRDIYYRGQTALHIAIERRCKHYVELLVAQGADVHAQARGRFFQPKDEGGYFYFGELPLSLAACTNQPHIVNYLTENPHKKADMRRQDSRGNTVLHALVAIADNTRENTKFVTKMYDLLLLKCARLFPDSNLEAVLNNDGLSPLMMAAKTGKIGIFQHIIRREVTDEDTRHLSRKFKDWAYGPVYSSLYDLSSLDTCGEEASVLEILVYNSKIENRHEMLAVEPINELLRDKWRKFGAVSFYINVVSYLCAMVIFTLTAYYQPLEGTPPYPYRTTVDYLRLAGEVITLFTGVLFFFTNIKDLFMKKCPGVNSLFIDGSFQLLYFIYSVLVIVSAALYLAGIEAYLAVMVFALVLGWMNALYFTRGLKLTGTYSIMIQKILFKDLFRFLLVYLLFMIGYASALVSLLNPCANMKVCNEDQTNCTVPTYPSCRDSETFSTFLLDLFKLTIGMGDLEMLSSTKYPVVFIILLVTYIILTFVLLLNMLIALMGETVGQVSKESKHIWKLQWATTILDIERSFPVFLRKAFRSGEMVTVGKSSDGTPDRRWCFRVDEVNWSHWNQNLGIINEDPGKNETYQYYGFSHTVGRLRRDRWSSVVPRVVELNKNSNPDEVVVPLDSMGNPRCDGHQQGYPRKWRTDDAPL

| SMILES | IC50 [1] | IC50 [2] |
| --- | --- | --- |
| O=C([C@H](O)c1cccc(Cl)c1)N1CCCc2nc(C3(c4cccc(-c5ccc(C(F)(F)F)cc5)c4)CC3)[nH]c(=O)c2C1 [40-8] | < 50 nM | < 10 nM |
| O=C(Cc1cccc(-c2cccc(Cl)c2)c1)N1CCCc2nc(C3(c4cccc(C5CCCCC5)c4)CC3)[nH]c(=O)c2C1 [31-16] | < 50 nM | < 10 nM |
| O=C([C@H](O)c1cccc(-c2cccc(OC(F)(F)F)c2)c1)N1CCCc2nc(C3(c4cncc(C5CCCCC5)c4)CC3)[nH]c(=O)c2C1 [55-10] | < 50 nM | < 10 nM |
| O=C(C(O)c1cccc(OCc2ccccc2)c1)N1CCCc2nc(C3(c4ccccc4)CC3)[nH]c(=O)c2C1 (stereo not shown) [17-76] | < 50 nM | < 10 nM |
| O=C(Cc1cccc(-c2ccc(OC(F)(F)F)cc2)c1)N1CCc2nc(C3(c4cccc(Cl)c4)CC3)[nH]c(=O)c2C1 [14-118] | < 50 nM |  |
| O=C(C(O)c1cccc(-c2ccccc2C(F)(F)F)c1)N1CCc2nc(C3(c4ccccc4)CC3)[nH]c(=O)c2C1 (stereo not shown) [44-54] | < 50 nM |  |
| O=C(C(O)c1cccc(-c2csc(Cl)c2)c1)N1CCc2nc(C3(c4ccccc4)CC3)[nH]c(=O)c2C1 (stereo not shown) [44-27] | < 50 nM |  |
| N#Cc1cccc(-c2cccc(C3(c4nc5c(c(=O)[nH]4)CN(C(=O)[C@H](O)c4cccc(Cl)c4)CCC5)CC3)c2)c1 [40-21] | < 50 nM | < 3 nM |
| O=C([C@H](O)c1cccc(Cl)c1)N1CCCc2nc(C3(c4cc(C5CCCC5)cs4)CC3)[nH]c(=O)c2C1 [18-23] | < 50 nM | < 3 nM |
| O=C(C(O)c1cccc(Oc2ccccc2)c1)N1CCCc2nc(C3(c4cccc(F)c4)CC3)[nH]c(=O)c2C1 (stereo not shown) [17-52] | < 50 nM |  |
| CCc1csc(C2(c3nc4c(c(=O)[nH]3)CN(C(=O)[C@H](O)c3cccc(C(F)(F)F)c3)CCC4)CC2)c1 [30-2] | < 50 nM | < 3 nM |
| CC(C)(C)c1cccc(-c2cccc([C@@H](O)C(=O)N3CCCc4nc(C5(c6cccc(-c7csc8ccccc78)c6)CC5)[nH]c(=O)c4C3)c2)c1 [52-12] | < 50 nM | < 10 nM |
| CC(C)c1cncc(C2(c3nc4c(c(=O)[nH]3)CN(C(=O)C(O)c3cccc(C(C)(C)C)c3)CCC4)CC2)c1 (stereo not shown) [19-4] | < 50 nM | < 10 nM |
| O=C([C@H](O)c1cccc(-c2ccc3c(c2)OCCCO3)c1)N1CCc2nc(C3(c4ccccc4)CC3)[nH]c(=O)c2C1 [44-106] | < 50 nM |  |
| CC1CCN(c2ccc(-c3cccc(C4(c5nc6c(c(=O)[nH]5)CN(C(=O)[C@H](O)c5cccc(C(F)(F)F)c5)CCC6)CC4)c3)cn2)CC1 [42-10] | < 50 nM | < 3 nM |
| O=C(N1CCCc2nc(C3(c4ccccc4)CC3)[nH]c(=O)c2C1)C(F)(F)c1cccc(-c2cccc(C(F)(F)F)c2)c1 [58-1] | < 50 nM | < 10 nM |
| O=C(C(O)c1cccc(-c2ccccc2)c1)N1CCc2nc(C3(c4ccccc4)CC3)[nH]c(=O)c2C1 (stereo not shown) [44-55] | < 50 nM |  |
| O=C(C(O)c1cccc(-c2ccc(F)c(Cl)c2)c1)N1CCc2nc(C3(c4ccccc4)CC3)[nH]c(=O)c2C1 (stereo not shown) [44-14] | < 50 nM | < 10 nM |
| O=C(C(O)c1cccc(-c2ccc(Cl)cc2)c1)N1CCc2nc(C3(c4cccs4)CC3)[nH]c(=O)c2C1 (stereo not shown) [15-10] | < 50 nM |  |

| SMILES | IC50 [1] | IC50 [2] |
| --- | --- | --- |
| O=C(C(O)c1cccc(-c2cc(F)cc(Cl)c2)c1)N1CCc2nc(C3(c4ccccc4)CC3)[nH]c(=O)c2C1 (stereo not shown) [44-11] | < 50 nM | < 10 nM |
| O=C(C(O)c1cccc(OCc2ccccc2)c1)N1CCc2nc(C3(c4cccc(Cl)c4)CC3)[nH]c(=O)c2C1 (stereo not shown) [14-106] | < 50 nM | < 10 nM |
| CC(C)c1cccc(-c2cccc([C@@H](O)C(=O)N3CCc4nc(C5(c6ccccc6)CC5)[nH]c(=O)c4C3)c2)c1 [44-115] | < 50 nM | < 10 nM |
| O=C([C@H](O)c1cccc(C(F)(F)F)c1)N1CCCc2nc(C3(c4cncc(-c5ccccc5)c4)CC3)[nH]c(=O)c2C1 [43-1] | < 50 nM | < 3 nM |
| COCCOc1cccc(-c2cccc(C3(c4nc5c(c(=O)[nH]4)CN(C(=O)[C@H](O)c4cccc(C(F)(F)F)c4)CCC5)CC3)c2)c1 [42-4] | < 50 nM | < 3 nM |
| O=C(Cc1ccc(COc2ccccc2)cc1)N1CCN(c2ccc(-c3cccc(C4(c5nc6c(c(=O)[nH]5)CN(C(=O)[C@H](O)c5cccc(C(F)(F)F)c5)CCC6)CC4)c3)cn2)CC1 [42-90] | < 50 nM | < 10 nM |
| O=C(C(O)c1cccc(S(F)(F)(F)(F)F)c1)N1CCCc2nc(C3(c4ccccc4)CC3)[nH]c(=O)c2C1 (stereo not shown) [17-41] | < 50 nM | < 10 nM |
| O=C([C@H](O)c1cccc(C(F)(F)F)c1)N1CCc2nc(C3(c4cccc(Cl)c4)CC3)[nH]c(=O)c2C1 [3-72] | < 50 nM |  |
| CC(C)c1cncc(C2(c3nc4c(c(=O)[nH]3)CN(C(=O)C(F)(F)c3cccc(Cl)c3)CCC4)CC2)c1 [22-3] | < 50 nM | < 3 nM |
| CC(C)c1csc(C2(c3nc4c(c(=O)[nH]3)CN(C(=O)[C@H](O)c3cccc(C(F)(F)F)c3)CCC4)CC2)c1 [18-1] | < 50 nM | < 3 nM |
| Cc1ccc(-c2cccc(C(O)C(=O)N3CCc4nc(C5(c6ccccc6)CC5)[nH]c(=O)c4C3)c2)cc1Cl (stereo not shown) [44-26] | < 50 nM |  |
| O=C([C@H](O)c1cccc(C(F)(F)F)c1)N1CCCc2nc(C3(c4cccc(-c5ccc(N6CCC(OCc7ccccc7)CC6)nc5)c4)CC3)[nH]c(=O)c2C1 [42-88] | < 50 nM | < 3 nM |
| O=C([C@H](O)c1cccc(C(F)(F)F)c1)N1CCCc2nc(C3(c4cccc(-c5cnn(C(F)F)c5)c4)CC3)[nH]c(=O)c2C1 [42-21] | < 50 nM | < 10 nM |
| O=C(Cc1cccc(-c2ccc(C(F)(F)F)cc2)c1)N1CCc2nc(C3(c4cccc(Cl)c4)CC3)[nH]c(=O)c2C1 [14-117] | < 50 nM |  |
| O=C(C(O)c1cccc(SC(F)(F)F)c1)N1CCc2nc(C3(c4cccs4)CC3)[nH]c(=O)c2C1 (stereo not shown) [15-12] | < 50 nM |  |
| O=C(Cc1cccc(-c2cccc(C(F)(F)F)c2)c1)N1CCCc2c(nc(C3(c4ccccc4)CC3)[nH]c2=O)C1 [17-109] | < 50 nM |  |
| O=C(C(O)c1cccc(-c2cccc(OC(F)(F)F)c2)c1)N1CCCc2nc(C3(c4cccc(Cl)c4)CC3)[nH]c(=O)c2C1 (stereo not shown) [17-23] | < 50 nM | < 10 nM |
| CC(C)C(=O)N1CCN(c2ccc(-c3cccc(C4(c5nc6c(c(=O)[nH]5)CN(C(=O)[C@H](O)c5cccc(C(F)(F)F)c5)CCC6)CC4)c3)cn2)CC1 [42-89] | < 50 nM | < 10 nM |

The remaining lines, values ahead:

| IC50 [1] | IC50 [2] | SMILES |
| --- | --- | --- |
| < 50 nM | < 3 nM | O=C([C@H](O)c1cccc(C(F)(F)F)c1)N1CCCc2nc(C3(c4cccc(-c5ccc(C(F)(F)F)nc5)c4)CC3)[nH]c(=O)c2C1 [42-46] |
| < 50 nM |  | O=C(C(O)c1cccc(-c2ccc(C(F)F)cc2)c1)N1CCc2nc(C3(c4ccccc4)CC3)[nH]c(=O)c2C1 (stereo not shown) [44-31] |
| < 50 nM | < 10 nM | O=C(Cc1ccc(COc2ccccc2)cc1)N1CC=C(c2cccc(C3(c4nc5c(c(=O)[nH]4)CN(C(=O)[C@H](O)c4cccc(C(F)(F)F)c4)CCC5)CC3)c2)CC1 [42-79] |
| < 50 nM | < 10 nM | O=C([C@H](O)c1cccc(-c2cccc(OC(F)(F)F)c2)c1)N1CCCc2nc(C3(c4cccc(Cl)c4)CC3)[nH]c(=O)c2C1 [50-3] |
| < 50 nM | < 3 nM | CC(C)c1csc(C2(c3nc4c(c(=O)[nH]3)CN(C(=O)[C@H](O)c3cccc(Cl)c3)CCC4)CC2)c1 [18-24] |
| < 50 nM | < 10 nM | CC(C)c1cccc(C2(c3nc4c(c(=O)[nH]3)CN(C(=O)[C@H](O)c3cccc(-c5cccc(C(C)(C)C)c5)c3)CCC4)CC2)c1 [51-5] |
| < 50 nM | < 3 nM | N#Cc1cc(Cl)cc(-c2cccc([C@@H](O)C(=O)N3CCc4nc(C5(c6cccc(Cl)c6)CC5)[nH]c(=O)c4C3)c2)c1 [45-5] |
| < 50 nM | < 10 nM | Cn1cc(-c2cccc(C3(c4nc5c(c(=O)[nH]4)CN(C(=O)[C@H](O)c4cccc(C(F)(F)F)c4)CCC5)CC3)c2)cn1 [42-27] |
| < 50 nM | < 10 nM | CC(C)(C)c1cccc(CC(=O)N2CCCc3nc(C4(c5cccc(Cl)c5)CC4)[nH]c(=O)c3C2)c1 [17-141] |
| < 50 nM |  | O=C([C@H](O)c1cccc(-c2ccccc2OCc2ccccc2)c1)N1CCc2nc(C3(c4ccccc4)CC3)[nH]c(=O)c2C1 [44-111] |
| < 50 nM | < 3 nM | O=C([C@H](O)c1cccc(C(F)(F)F)c1)N1CCCc2nc(C3(c4cccc(-c5cnn(C6CCC6)c5)c4)CC3)[nH]c(=O)c2C1 [42-12] |
| < 50 nM |  | CC(C)c1cncc(C2(c3nc4c(c(=O)[nH]3)CN(C(=O)C(O)c3cccc(C(F)(F)F)c3F)CCC4)CC2)c1 (stereo not shown) [19-7] |
| < 50 nM |  | O=C(C(O)c1cc(Cl)cc(Cl)c1)N1CCCc2nc(C3(c4ccccc4)CC3)[nH]c(=O)c2C1 (stereo not shown) [17-61] |
| < 50 nM | < 10 nM | O=C([C@H](O)c1cccc(-c2cccc(OCc3ccccc3)c2)c1)N1CCCc2nc(C3(c4cccc(Cl)c4)CC3)[nH]c(=O)c2C1 [50-12] |
| < 50 nM | < 10 nM | CC(C)c1csc(C2(c3nc4c(c(=O)[nH]3)CN(C(=O)Cc3cccc(-c5cccc(Cl)c5)c3)CCC4)CC2)c1 [18-30] |
| < 50 nM |  | O=C([C@H](O)c1cccc(Cl)c1)N1CCc2nc(C3(c4cc(C5CCOCC5)cs4)CC3)[nH]c(=O)c2C1 [15-15] |
| < 50 nM | < 3 nM | CC(C)c1csc(C2(c3nc4c(c(=O)[nH]3)CN(C(=O)[C@H](O)c3cccc(-c5ccnc(C(F)(F)F)c5)c3)CCC4)CC2)c1 [54-6] |
| < 50 nM |  | O=C(C(O)c1cccc(C(F)(F)F)c1)N1CCc2nc(C3(c4ccccc4)CC3)[nH]c(=O)c2C1 (stereo not shown) [3-66] |
| < 50 nM | < 3 nM | CS(=O)(=O)c1cccc(-c2cccc(C3(c4nc5c(c(=O)[nH]4)CN(C(=O)[C@H](O)c4cccc(C(F)(F)F)c4)CCC5)CC3)c2)c1 [42-15] |
